Measured values published in PubChem BioAssay (NCI).
“And” between values parts separate entries of the source, which are not always exact repeats. Equal entries are not always repeated.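 The compound was tested at five concentrations on cells cultured in 96-well plates, with a 48-hour exposure period. Here, GI50 denotes the concentration required for 50% inhibition of growth. Definition used: TGI = concentration required for complete inhibition of growth.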

Key:
Test in all cases: growth of human tumour cells (NCI), 48 h
[1] = tested on: HCC-2998 colon
[2] = tested on: HOP-62 NSCLC
[3] = tested on: HT29 colon
[4] = tested on: MCF7 breast
[5] = tested on: MOLT-4 leukemia
[6] = tested on: PC-3 prostate
[7] = tested on: SK-MEL-28 melanoma
[8] = tested on: SK-MEL-5 melanoma
[9] = tested on: T-47D breast
[10] = tested on: U251 CNS

SMILES	TGI [1]	TGI [2]	TGI [3]	TGI [4]	TGI [5]	TGI [6]	TGI [7]	TGI [8]	TGI [9]	TGI [10]	GI50 [2]	GI50 [3]	GI50 [4]	GI50 [5]	GI50 [6]	GI50 [7]	GI50 [8]	GI50 [9]	GI50 [10]	GI50 [1]
CC(=O)Nc1cc2cc(N)ccc2oc1=O	> 100 µM	> 100 µM	> 100 µM	> 100 µM	> 100 µM	> 100 µM	> 100 µM	> 100 µM	> 100 µM	> 100 µM	–	–	–	–	–	–	–	–	–	–
CCN(CC)CCCC(C)Nc1ccnc2cc(Cl)ccc12 (centres undefined)	48.8 µM	> 100 µM	> 100 µM	> 100 µM and 42.3 µM	> 100 µM and 50 µM	> 100 µM	> 100 µM and 42.3 µM	48.2 µM and 63.3 µM	> 100 µM and 64.1 µM	> 100 µM and 66.1 µM	> 100 µM	45.7 µM	63.9 µM	62.9 µM	98.4 µM	39.9 µM	21.9 µM	> 100 µM	> 100 µM	–
CN(C)CCCN(CCC1CCCCC1)CCC1CCCCC1	0.915 µM	16.3 µM	6.81 µM	2.62 µM	7.93 µM	17.9 µM	1.18 µM	2.14 µM	3.52 µM	3.81 µM	6.06 µM	0.73 µM	1.32 µM	1.85 µM	4.47 µM	0.593 µM	0.545 µM	1.57 µM	1.67 µM	0.325 µM
CSC(=NC#N)S/C=C/C(=O)c1ccccc1	> 100 µM	> 100 µM	> 100 µM	> 100 µM	> 100 µM	> 100 µM	> 100 µM	> 100 µM	> 100 µM	> 100 µM	36 µM	37.3 µM	52.3 µM	22.6 µM	33.2 µM	58 µM	45.9 µM	> 100 µM	40.3 µM	59.4 µM
C=C(CN1CCN(c2ccc(C(F)(F)F)cc2)CC1)c1ccc(C(=O)Nc2ccccc2N)cc1	> 100 µM	> 45 µM	> 100 µM	> 100 µM	1.06 µM	> 65.7 µM	> 100 µM	> 100 µM	> 100 µM	31 µM	8.38 µM	> 75.7 µM	10.9 µM	0.153 µM	1.29 µM	> 100 µM	4.43 µM	21.8 µM	6.25 µM	30.2 µM
O=C(CCl)NCCNc1nccc(Nc2ccc(S(=O)(=O)Nc3ccccn3)cc2)n1	20.5 µM	5.46 µM	6.52 µM	5.61 µM	11.9 µM	7.45 µM	13.5 µM	2.94 µM	8.33 µM	3.43 µM	2.17 µM	2.41 µM	1.78 µM	1.91 µM	2.5 µM	2.97 µM	1.53 µM	1.9 µM	1.21 µM	4.8 µM
CC1=C2CC(C)(C)/C=C\C(=O)/C(C)=C\C3=C[C@H](C)C[C@]3(O2)C1=O	10.2 µM	15.9 µM	2.76 µM	2.14 µM	1.53 µM	7.09 µM	1.74 µM	8.06 µM	1.65 µM	9.98 µM	–	–	–	–	–	–	–	–	–	–
Cc1c2ccn(O)cc2c(C)c2c1nc1ccccc12	98.5 µM	27.5 µM	> 100 µM	> 100 µM	16.8 µM	30.2 µM	> 100 µM	> 100 µM	8.93 µM	16.7 µM	–	–	–	–	–	–	–	–	–	–
CC(=O)/C(=C/c1ccccc1)C(=O)CC(C)C	21.7 µM	71.8 µM	12.8 µM	18.5 µM	79.4 µM	93.6 µM	24.9 µM	26.9 µM	91.9 µM	17.7 µM	26.8 µM	3.8 µM	4.5 µM	3.59 µM	25.6 µM	11.5 µM	13.5 µM	24 µM	4.86 µM	9.49 µM
CC(=O)OC1CCC2(C)C(CCC3C2CC(=O)C2(C)C3CC(N3CC3)C2C(C)=O)C1 (centres undefined)	32 µM	> 100 µM	> 100 µM	47.1 µM	34.4 µM	30 µM	> 100 µM	32.3 µM	65.2 µM	37.8 µM	–	–	–	–	–	–	–	–	–	–
CCCCCCCCCCCCCCCCCc1nccn1CCOCCO	11.1 µg/mL	10.8 µg/mL	10.1 µg/mL	11.4 µg/mL	12.3 µg/mL	10.7 µg/mL	11.4 µg/mL	9.61 µg/mL	8.99 µg/mL	9.62 µg/mL	5.37 µg/mL	4.59 µg/mL	5.65 µg/mL	5.5 µg/mL	4.9 µg/mL	6.22 µg/mL	4.87 µg/mL	2.99 µg/mL	4.52 µg/mL	5.76 µg/mL
NCCc1ccc(S(=O)(=O)F)cc1	> 100 µM	> 100 µM	> 100 µM	> 100 µM	> 100 µM	> 100 µM	> 100 µM	> 100 µM	> 100 µM	> 100 µM	57.8 µM	> 100 µM	63.5 µM	32.2 µM	42.8 µM	> 100 µM	59.1 µM	> 100 µM	95.1 µM	39.1 µM
CC/C=C\C[C@H](F)C/C=C1/C(=O)C=C[C@@H]1C/C=C\CCCC(=O)OC	10.6 µM	3.45 µM	4.67 µM	7.05 µM	5.27 µM	5.7 µM	4.94 µM	3.13 µM	5.57 µM	6.57 µM	1.45 µM	1.69 µM	1.02 µM	1.45 µM	1.74 µM	1.52 µM	1.29 µM	1.42 µM	1.86 µM	4.1 µM
